The results in this text go back to patent publication US7655629B2, “Peptides and their use for the treatment of HIV infections” (priority 2002, dated 2010).

One data set deals with HIV-1 NL4-3 DTV. The conditions noted are these: read-out: IC50 DTV, P4-CCR5 cells, peptide 2 h before infection, readout three days after infection. Summed up: (§1)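 P4-CCR5 cells (CD4, CCR5, CXCR4, HIV-1 promoter-driven β-galactosidase) pretreated 2 h with peptide, then infected with virus containing 1 ng p24 antigen and incubated overnight. Cells washed and cultured without peptide; three days post-infection infectivity read by chemiluminescent β-galactosidase assay, in quintuplicate.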

The next data set has as its system X4-tropic HIV-1 NL4-3. To be noted: read-out: IC50 NL4-3; P4-CCR5 cells, HIV-1 NL4-3, peptide 2 h before infection, readout three days after infection. Summed up: as §1
Data set [1] is described as follows: Acute toxicity in mice after a single intravenous injection. Format: in vivo, SCID-C.B 17-mice. The conditions noted are these: 927 mg per kg body weight. On the procedure:
Acute toxicity was evaluated with VIR-121 (LEAIPMSIPpEVAFNkPFVF) after a single intravenous injection into the tail vein of SCID-C.B 17-mice. A dose of 927 mg VIR-121 (SEQ ID NO. 2) dissolved in 13.6 ml 0.9 volume % sodium chloride solution per kg body weight (equivalent to 20.4 mg or 272 μL per mouse) was applied. Injection speed was dose within 15 seconds. […] As a control, 3 mice were each treated with a corresponding volume of vehicle (0.9 volume % NaCl). After 24 hours, the animals were sacrificed, dissected and inspected macroscopically. […] No findings were obtained from macroscopic necropsy compared to the control group.

Data set [2] has as its system human monocytic THP-1 cells. Kind of data set: Cytotoxicity on human cells, WST-1 assay. The conditions noted are these: 24 hours, 30, 100, 300 and 1000 μg/mL. On the procedure:
The cytotoxicity of peptides of the invention was tested by evaluating the viability of human monocytic THP-1 cells. Cytotoxic effects of the peptides were tested by their influence on metabolic activity by means of the WST-1 assay (Roche Diagnostics, Germany). THP-1 cells were incubated with test peptides in a 96-well plate (approx. 25,000 cells per well) for 24 hours in RPMI-1640 medium containing 25 mM L-glutamine and 10 volume % fetal calf serum at 37° C. in an atmosphere with 5 volume % CO2. Ten μl of a WST-1 solution was added to each cavity, and incubation of THP-1 cells was allowed for 2 further hours at corresponding conditions. Metabolically active THP-1 cells reduce WST-1, a light red tetrazolium salt, yielding a soluble yellow formazan salt. The amount of reduced WST-1 correlates directly to the number of living cells, and is measured photometrically at a wavelength of λ=450 nm using a microtiter plate reader (reference wavelength is 630 nm). As a positive control, the known cytotoxic substance cycloheximide was used at a concentration of 50 μg/ml; the cytotoxicity of cycloheximide was set to 100%. […] The cytotoxicity of VIRIP peptides was calculated using the formula Viability [%]=[A450 nm (peptide)−A450 nm (cycloheximide)]/[A450 nm (negative control)−A450 nm (cycloheximide)]*100 and was correlated to the averaged viability of untreated THP-1 cells. […]

Data set [3] concerns the target T1, synthetic fusion peptide of HIV gp41 (Human immunodeficiency virus type 1 group M subtype B, UniProt P04578).
T1 construct: The fusion peptide is the very amino-terminal part of gp41 consisting of about 30 amino acid residues
In words: Inhibition of fusion peptide-induced hemolysis. To be noted: peptides at 1000, 100 and 10 μM preincubated with 100 μM fusion peptide, human erythrocytes, hemoglobin release. The format is cell-based. On the procedure: The synthetic fusion peptide of HIV gp41 causes concentration-dependent hemolysis which can be measured by hemoglobin released by erythrocytes.
Peptides and any other substance binding to the fusion peptide impair its potency to lyse erythrocytes by changing its structural properties. The inhibition of fusion peptide induced hemolysis was tested as follows: Blood from healthy donors was collected in citrate monovettes and the erythrocytes were extracted by a standard centrifugation and washing protocol known to the skilled person. The final erythrocyte-containing pellett was diluted 1:100 with phosphate-saline buffer. To the peptides (10, 100, or 1000 equivalents) 20 μl of a 100 μM fusion peptide solution in 10% DMSO were added and the solution was diluted to 100 μl with phosphate-buffered saline. A 60 min incubation at 37° C. was carried out. After the preincubation the samples were transferred to 96-well plates and 100 μl of the erythrocyte suspension were added and incubated for 60 min at 37° C. […] The 96-well plate is centrifuged 5 min at 2800 rpm and of the supernatant fluid 150 μl were transferred to a flat-bottom microtiter plate, and the absorbance was measured at 450 nm. The percentage hemolysis was calculated by: [(A450 of the peptide treated sample—A450 of buffer treated sample)/(A450 of Tween-20 treated sample—A450 of buffer treated sample)]×100%.

For data set [4] the following is noted: human, plasma.
Procedure: (§2) Plasma was spiked resulting in concentrations of 40 μg/ml and stored at 37° C. At time points 0, 15, 30, 45, 60, 120, 180, 240 and 300 min samples of 20 μl were taken. The plasma was immediately mixed for precipitation with the two-fold volume of acetonitrile containing 0.15% (w/v) n-nonyl-β-D-glucopyranoside. Following centrifugation the supernatants were mixed with the two-fold volume of 0.1% (v/v) trifluroacetic acid. Twenty μl of these solutions were analyzed by LC-MS. Chromatography was performed using a gradient with the following eluents: eluent A: water containing 0.06% trifluroacetic acid (v/v), eluent B: acetonitrile/water 80:20 (v/v; with 0.05% trifluoroacetic acid; v/v). A C18 precolumn was used in combination with a C18 separation column (300 Å, 5 μm, 150×1 mm inner diameter) at a flow rate of 30 μl/min. HPLC eluates were ionized by the electrospray technique of a LCQ classic mass spectrometer. Areas of the detected peaks of the peptides of the present invention were measured and used for quantification by external calibration. The calibration curve was linear over a range from 0.5 μg/ml to 250 μg/ml plasma. Half life—defined as the period for a concentration decrease to 50% of the initial concentration—was calculated from the slope of an extrapolated curve plotting the relative peptide concentration at a given time point (logarithm scale) against the incubation time. These experiments allowed the quantitative analysis of peptide concentration in plasma.
For data set [5] the following is noted: rat, plasma.
Procedure: as §2
The conditions of data set [6]: dog, plasma.
Procedure: as §2
The conditions of data set [7]: cynomolgus monkey, plasma.
Procedure: as §2
For data set [8], the target named is gp41 of HIV-1 NL4-3 (HIV-1 NL4-3). Kind of data set: cell-based or functional assay.
Data set [9] addresses gp41 of HIV-1 NL4-3 DTV (HIV-1 NL4-3 DTV). In words: cell-based or functional assay.

“And” between values parts separate entries of the source, which are not always exact repeats. Identical values can stand only once. “Also recorded” adds a separate entry of the source. Like-named read-outs stand apart in the source and are kept apart here. Positions of bridges follow the written chain, without caps; N, C: chain ends. Non-standard residues stand in square brackets, D forms with d. Residues, ends and D or L forms follow the SMILES beside them. No end group written: not given here. NMeL = CN[C@@H](CC(C)C)C(=O)O

For orientation: IC50 means the midpoint of a concentration-inhibition curve. As for `CC[C@H](C)[C@H](NC(=O)[C@H](C)NC(=O)[C@H](CCC(=O)O)NC(=O)[C@@H](N)CC(C)C)C(=O)N1CCC[C@H]1C(=O)N[C@@H](CCSC)C(=O)N[C@@H](CO)C(=O)N[C@H](C(=O)N1CCC[C@H]1C(=O)N1CCC[C@@H]1C(=O)N[C@@H](CCC(=O)O)C(=O)N[C@H](C(=O)N[C@@H](C)C(=O)N[C@@H](Cc1ccccc1)C(=O)N[C@@H](CC(N)=O)C(=O)N[C@@H](CCCCN)C(=O)N1CCC[C@H]1C(=O)N[C@@H](Cc1ccccc1)C(=O)N[C@H](C(=O)N[C@@H](Cc1ccccc1)C(=O)O)C(C)C)C(C)C)[C@@H](C)CC` [VIR-121, LEAIPMSIPpEVAFNKPFVF] (H-LEAIPMSIP[dP]EVAFNKPFVF-OH), the IC50 was found to be 1790 nM in the data set with HIV-1 NL4-3 DTV and 370 nM with X4-tropic HIV-1 NL4-3. The changes of behaviour result in data set [1] (24 hours observation) was “No changes of behaviour”. Moreover, the “macroscopic necropsy / pathological examination” value in data set [1] (sacrificed after 24 hours) is recorded as “did not reveal any abnormalities; also recorded: No findings”. In addition, the “clinical signs (motility, dyspnea, ataxia, muscle tone)” value in data set [1] (tail vein, 24 hours observation) is “no signs of reduced or increased motility, dyspnea, ataxia, nor a reduced or increased muscle tone”.

For `CC[C@H](C)[C@H](NC(=O)[C@H](C)NC(=O)[C@H](CCC(=O)O)NC(=O)[C@@H](N)CC(C)C)C(=O)N1CCC[C@H]1C(=O)N[C@H]1CSSC[C@@H](C(=O)N[C@H](C(=O)N[C@@H](Cc2ccccc2)C(=O)N[C@@H](Cc2ccccc2)C(=O)N[C@@H](CC(N)=O)C(=O)N[C@@H](CCCCN)C(=O)N2CCC[C@H]2C(=O)N[C@@H](Cc2ccccc2)C(=O)N[C@H](C(=O)N[C@@H](Cc2ccccc2)C(=O)O)C(C)C)C(C)C)NC(=O)[C@@H]2CCCN2C(=O)[C@@H]2CCCN2C(=O)[C@H]([C@@H](C)CC)NC(=O)[C@H](CO)NC1=O` [VIR-164] (H-LEAIPCSIPPCVFFNKPFVF-OH; disulfide 6-11), the 50% inhibitory concentration (IC50) worked out at 370 nM in the data set with HIV-1 NL4-3 DTV and 340 nM with X4-tropic HIV-1 NL4-3. In addition, the “cytotoxic effect on THP-1 cells” value in [2] is “free of any cytotoxic effect; also recorded: did not exhibit a cytotoxic effect”. Further, the “inhibition of fusion peptide-induced hemolysis” value (“inhibition” below) in data set [3] is recorded as “Dose dependent inhibition”.

Take `CC[C@H](C)[C@H](NC(=O)[C@H](C)NC(=O)[C@H](CCC(=O)O)NC(=O)[C@@H](N)CC(C)C)C(=O)N1CCC[C@H]1C(=O)N[C@H]1CSSC[C@@H](C(=O)N[C@@H](Cc2ccccc2)C(=O)N[C@@H](C)C(=O)N[C@@H](Cc2ccccc2)C(=O)N[C@@H](CC(N)=O)C(=O)N[C@@H](CCCCN)C(=O)N2CCC[C@H]2C(=O)N[C@@H](Cc2ccccc2)C(=O)N[C@H](C(=O)N[C@@H](Cc2ccccc2)C(=O)O)C(C)C)NC(=O)[C@@H]2CCCN2C(=O)[C@@H]2CCCN2C(=O)[C@H]([C@@H](C)CC)NC(=O)[C@H](CO)NC1=O` [VIR-165]: the IC50 with HIV-1 NL4-3 DTV was 140 nM. For the same molecule, the “cytotoxic effect on THP-1 cells” value in data set [2] is “free of any cytotoxic effect; also recorded: did not exhibit a cytotoxic effect”. The “inhibition” value in data set [3] is on record as “Dose dependent inhibition”.

In general, half-life refers to the time needed for the level to fall by half in the phase considered. Read a high half-life as slow loss. Take “H-LEAIPMSIPPEVKFNKPFVF-OH [VIRIP, reference compound]”: the IC50 was 22000 nM and 22200 nM in the data set with HIV-1 NL4-3 DTV; 15000 nM in the data set with X4-tropic HIV-1 NL4-3. Further, in data set [3], the “inhibition” value is given as “Dose dependent inhibition”. Further, the half-life in [4] is 53.7 h; in [5] it was 1.7 h; in data set [6], 35.9 h; in [7], 5.1 h.

Take VIR-576 (peptide): the IC50 NL4-3 (HIV-1 infection of P4-CCR5 cells) in [8] was determined as 107 nM. In addition, in data set [9], the IC50 DTV (HIV-1 infection of P4-CCR5 cells) was determined as 296 nM.

Take VIRIP (peptide): the IC50 NL4-3 (HIV-1 infection of P4-CCR5 cells) in data set [8] came to 15000 nM. Also, in [9], the IC50 DTV (HIV-1 infection of P4-CCR5 cells) was determined as 22200 nM.

Molecule [NMeL]EAIPMSIPPEFLFGKPFVF [VIR-512] returned an IC50 NL4-3 (HIV-1 infection of P4-CCR5 cells) in data set [8] of 138 nM. The molecule further showed an IC50 DTV (HIV-1 infection of P4-CCR5 cells) in data set [9] of 615 nM.
